Test results: patent US9296720B2, “Carboxamide-substituted heteroaryl-pyrazoles and the use thereof” (AiCuris GmbH & Co. KG, priority 2011, dated 2016)

Key:
Type in all cases: cell-based
HIV-1NL4-3 Wild Type = experiment: Luminescence reduction assay, MT4 cells infected with HIV-1NL4-3 luciferase reporter virus, wild type; details: Human immunodeficiency virus 1, MT4, MT4 cells, 2% FCS
Source text: (§1) For this assay, HIV-1NL4-3 reporter viruses are used, which carry the luciferase164 gene (lu164) instead of the nef gene. The viruses are generated by transfection of 293T cells with the corresponding proviral pNL4-3 plasmid (Lipofectamine Reagent, Invitrogen, Karlsruhe, Germany). Starting from the proviral plasmid-DNA, viruses with defined resistance mutations in the reverse transcriptase gene are produced with the “QuikChange II XL Site-Directed Mutagenesis Kit” (Stratagene, Cedar Creek, Tex., USA). Among other things, the following mutations are generated: A98G, A98G-K103N-V108I, A98S, F227C, F227L, G190A, G190S, K101E, K101Q-K103N, K103N, K103N-F227L, K103N-G190A, K103N-G190S, K103N-M230L, K103N-N348I, K103N-P225H, K103N-V108I, K103N-V108I-P225H, K103N-V179F-Y181C, K103N-Y181C, K103N-Y181C-G190A, L100I, L100I-K103N, L100I-K103N-V179I-Y181C, L100I-K103N-Y181C, L234I, N348I, P225H, P236L, V106A, V106A-E138K, V106A-F227C, V106A-F227L, V106I, V106I-Y188L, V106M, V108I, V179F-Y181C, V179I, V179I-Y181C, Y181C, Y181C-G190A, Y181C-M230L, Y181I, Y188L. MT4 cells infected with these reporter viruses (NIH AIDS Research and Reference Reagent Program) secrete luciferase into the medium, which makes possible the luminometric quantification of the virus replication.
(§2) For the batch of a 96-well MTP, 3 million MT4 cells are pelletized, suspended in 1 ml of RPMI 1640 medium without phenol red (Invitrogen, Karlsruhe, Germany)/10% FCS/2 mmol of L-glutamine/1% Pen/Strep (Invitrogen, Karlsruhe, Germany), and incubated together with a suitable amount of the corresponding HIV-1NL4-3 reporter virus for 2 hours at 37° C. (pellet infection). Non-adsorbed viruses are then washed out with PBS, the infected cells are pelletized again, and suspended in 8 ml of RPM 11640 medium without phenol red/2% or 10% FCS/2 mmol of L-glutamine/1% Pen/Strep. Therefrom, 80 μl per well is pipetted into a white 96-well MTP in 20 μl of test substance in a suitable dilution. In order to avoid boundary effects, the edge wells of the MTP are not used for substance dilutions. The second vertical row of the MTP contains only infected cells (virus control), and the eleventh vertical row contains only non-infected cells (cell control) in each case in RPMI 1640 medium without phenol red/2% or 10% FCS/2 mmol of L-glutamine/1% Pen/Strep. The other wells of the MTP contain the compounds according to the invention in different concentrations starting from the third vertical row, from which dilution of the test substances is carried out 3^7 times in three steps up to the tenth vertical row. The test substances are dissolved in DMSO, whereby the DMSO final concentration in the test batch is ultimately 1%. The test batches are incubated for 5 days at 37° C./5% CO2, and are luminometrically evaluated after the addition of 15 μl of Lu164-buffer (65 mmol of NaCl, 300 mmol of MES, pH 5.8, 5 mmol of glutathione and 1:200 coelenterazine (5 mg/ml in 30 μM of glutathione/DMSO) (P.J.K. GmbH, Kleinblittersdorf, Germany)). In the virus control, the resulting values are in the range of 1 million RLUs (relative light units), and in the cell control, the resulting values are 300 to 400 RLUs. The EC50 values of the test substances are determined as the concentration of the treated infected cells, in which the virus replication measured in RLUs is 50% of the untreated infected cells.

HIV-1NL4-3 K103N-Y181C = experiment: Luminescence reduction assay, MT4 cells infected with HIV-1NL4-3 luciferase reporter virus, RT mutant K103N-Y181C; details: Human immunodeficiency virus 1, MT4, read-out: EC50 (μM) MT4 Cells HIV-1NL4-3 K103N-Y181C 2% FCS, MT4 cells, HIV-1NL4-3 K103N-Y181C, 2% FCS
Source text: as §1, §2

HIV-1LAI Wild Type = experiment: AlamarBlue viability assay, HIV-1LAI-infected MT4 cells; details: Human immunodeficiency virus 1, MT4, MT4 cells, 10% FCS
Experimental: For the batch of a 96-well MTP, 3 million PBLs are pelletized, suspended in 1 ml of RPMI 1640 medium/10% FCS/2 mmol of L-glutamine/1% Pen/Strep, and incubated together with a suitable amount of HIV-1LA1 (NIH AIDS Research & Reference Reagent Program, Germantown, USA) for 2 hours at 37° C. (pellet infection). Non-adsorbed viruses are then washed out with PBS, the infected cells are pelletized again, and suspended in 18 ml of RPMI 1640 medium/10% FCS/2 mmol of L-glutamine/1% Pen/Strep/interleukin-2 (40 U/ml). Therefrom, 180 μl per well is pipetted into a white 96-well MTP in 20 μl of test substance in a suitable dilution. As an alternative, after preparation of the substance dilutions, the HIV is added by pipetting in the MTP together with the cells and is no longer washed out (supernatant infection). In order to avoid boundary effects, the edge wells of the MTP are not used for substance dilutions. The second vertical row of the MTP contains only infected cells (virus control), and the eleventh vertical row contains only non-infected cells (cell control) in each case in RPMI 1640 medium/10% FCS/2 mmol of L-glutamine/1% Pen/Strep/interleukin-2 (40 U/ml). The other wells of the MTP contain the compounds according to the invention in different concentrations starting from the third vertical row, from which dilution of the test substances is carried out 3^7 times in three steps up to the tenth vertical row. The test substances are dissolved in DMSO, whereby the DMSO final concentration in the test batch is ultimately 1%. The test batches are incubated at 37° C./5% CO2. After 5 and 7 days, in each case 50 μl of cell-free supernatant is drawn off from each well in order to determine the amount of p24 contained by means of p24 ELISA (HIV-1 p24^CA Antigen Capture Assay Kit, NCI-Frederick Cancer Research and Development Center, Frederick, USA). From the resulting values of the photometric analysis (450/620 nm), the EC50 values of the test substances are determined as the concentration of the treated infected cells, in which the amount of p24 is 50% of the untreated infected cells.
As an alternative, MT4 cells are used for testing test substances instead of PBLs. HIV-1LA1-infected MT4 cells (MOI 0.01, supernatant infection) are incubated according to the above-described pattern in RPMI 1640 medium with 2% or 10% FCS/2 mmol of L-glutamine/1% Pen/Strep in the presence of test substances for 5 days at 37° C./5% CO2 (20 μl of substance dilution and 80 μl of cells/virus per well). Then, 10 μl of AlamarBlue (Invitrogen, Karlsruhe, Germany) is added to each well, and MTPs are incubated for 3 hours at 37° C., before the fluorimetric analysis is done (544/590 nm). The resulting values are approximately 30,000 in the case of untreated, non-infected cells, and approximately 6,000 in the case of untreated infected cells. In the low concentration range, the EC50 values of the test substances are determined as the concentration of the treated infected cells, in which the fluorescence is 50% of the untreated non-infected cells (in each case relative to the values of the untreated infected cells). In addition, in the high concentration range, the CC50 values of the test substances are determined as the concentration of the treated infected cells, in which the fluorescence is 50% of the untreated, non-infected cells (in each case relative to the values of the untreated infected cells).

O=C(c1cc(-c2cc(F)cc(Cl)c2)n(-c2ccnc(C(F)(F)F)c2)n1)N1CCSC1 [Example 18]
EC50 (HIV-1NL4-3 Wild Type): 0.284 µM | EC50 (HIV-1NL4-3 K103N-Y181C): > 3.3 µM | EC50 (HIV-1LAI Wild Type): > 3.3 µM

O=C(c1cc(-c2cc(F)cc(Cl)c2)n(-c2ccnc(C(F)(F)F)c2)n1)N1CC[S+]([O-])C1 (stereo not drawn) [Example 19, {5-(3-Chloro-5-fluorophenyl)-1-[2-(trifluoromethyl)pyridin-4-yl]-1H-pyrazol-3-yl}(1-oxido-1,3-thiazolidin-3-yl)methanone]
EC50 (HIV-1NL4-3 Wild Type): 0.152 µM | EC50 (HIV-1NL4-3 K103N-Y181C): > 3.3 µM | EC50 (HIV-1LAI Wild Type): 2.5 µM

O=C(c1cc(-c2cc(F)cc(Cl)c2)n(-c2ccnc(C(F)(F)F)c2)n1)N1CCS(=O)(=O)C1 [Example 20, {5-(3-Chloro-5-fluorophenyl)-1-[2-(trifluoromethyl)pyridin-4-yl]-1H-pyrazol-3-yl}(1,1-dioxido-1,3-thiazolidin-3-yl)methanone]
EC50 (HIV-1NL4-3 Wild Type): 0.162 µM | EC50 (HIV-1NL4-3 K103N-Y181C): 1.39 µM | EC50 (HIV-1LAI Wild Type): 1.46 µM

Cc1cc(-n2nc(C(=O)N3CNC(=O)C3)cc2-c2cc(F)cc(Cl)c2)ccn1 [Example 21, 1-{[5-(3-Chloro-5-fluorophenyl)-1-(2-methylpyridin-4-yl)-1H-pyrazol-3-yl]carbonyl}imidazolidin-4-one]
EC50 (HIV-1NL4-3 Wild Type): 0.092 µM | EC50 (HIV-1NL4-3 K103N-Y181C): 0.436 µM | EC50 (HIV-1LAI Wild Type): 0.397 µM

Cc1cc(-n2nc(C(=O)N3CCNC(=O)C3)cc2-c2cc(F)cc(Cl)c2)ccn1 [Example 22, 4-{[5-(3-Chloro-5-fluorophenyl)-1-(2-methylpyridin-4-yl)-1H-pyrazol-3-yl]carbonyl}piperazin-2-one]
EC50 (HIV-1NL4-3 Wild Type): 0.375 µM | EC50 (HIV-1NL4-3 K103N-Y181C): > 3.3 µM | EC50 (HIV-1LAI Wild Type): 3.18 µM

Cc1cc(-n2nc(C(=O)N3CCSC3)cc2-c2cc(F)cc(Cl)c2)ccn1 [Example 23, [5-(3-Chloro-5-fluorophenyl)-1-(2-methylpyridin-4-yl)-1H-pyrazol-3-yl](1,3-thiazolidin-3-yl)methanone]
EC50 (HIV-1NL4-3 Wild Type): 0.439 µM | EC50 (HIV-1NL4-3 K103N-Y181C): > 3.3 µM | EC50 (HIV-1LAI Wild Type): > 3.3 µM

Cc1cc(-n2nc(C(=O)N3CC[S+]([O-])C3)cc2-c2cc(F)cc(Cl)c2)ccn1 (stereo not drawn) [Example 24, [5-(3-Chloro-5-fluorophenyl)-1-(2-methylpyridin-4-yl)-1H-pyrazol-3-yl](1-oxido-1,3-thiazolidin-3-yl)methanone]
EC50 (HIV-1NL4-3 Wild Type): 0.066 µM | EC50 (HIV-1NL4-3 K103N-Y181C): > 3.3 µM | EC50 (HIV-1LAI Wild Type): 0.668 µM

COc1cc(-n2nc(C(=O)N3CNC(=O)C3)cc2-c2cc(F)cc(Cl)c2)ccn1 [Example 25, 1-{[5-(3-Chloro-5-fluorophenyl)-1-(2-methoxypyridin-4-yl)-1H-pyrazol-3-yl]carbonyl}imidazolidin-4-one]
EC50 (HIV-1NL4-3 Wild Type): 0.004 µM | EC50 (HIV-1NL4-3 K103N-Y181C): 0.04 µM | EC50 (HIV-1LAI Wild Type): 0.011 µM

O=C1CN(C(=O)c2cc(-c3cc(Br)cc(OC(F)(F)F)c3)n(-c3ccccn3)n2)CN1 [Example 26, 1-({5-[3-Bromo-5-(trifluoromethoxy)phenyl]-1-(pyridin-2-yl)-1H-pyrazol-3-yl}carbonyl)imidazolidin-4-one]
EC50 (HIV-1NL4-3 Wild Type): 0.12 µM | EC50 (HIV-1NL4-3 K103N-Y181C): 0.071 µM | EC50 (HIV-1LAI Wild Type): > 3.3 µM

O=C1CN(C(=O)c2cc(-c3cc(Br)cc(OC(F)(F)F)c3)n(-c3cccc(Cl)n3)n2)CN1 [Example 27, 1-({5-[3-Bromo-5-(trifluoromethoxy)phenyl]-(6-chloropyridin-2-yl)-1H-pyrazol-3-yl}carbonyl)imidazolidin-4-one]
EC50 (HIV-1NL4-3 Wild Type): 0.098 µM | EC50 (HIV-1NL4-3 K103N-Y181C): 0.114 µM | EC50 (HIV-1LAI Wild Type): > 3.3 µM

O=C1CN(C(=O)c2cc(-c3cc(Br)cc(OC(F)(F)F)c3)n(-c3cccnc3)n2)CCN1 [Example 29, 4-({5-[3-Bromo-5-(trifluoromethoxy)phenyl]-1-(pyridin-3-yl)-1H-pyrazol-3-yl}carbonyl)piperazin-2-one]
EC50 (HIV-1NL4-3 Wild Type): 0.012 µM | EC50 (HIV-1NL4-3 K103N-Y181C): 0.032 µM | EC50 (HIV-1LAI Wild Type): 0.097 µM

O=C(c1cc(-c2cc(Br)cc(OC(F)(F)F)c2)n(-c2cccnc2)n1)N1CCSC1 [Example 30, (5-[3-Bromo-5-(trifluoromethoxy)phenyl]-1-(pyridin-3-yl)-1H-pyrazol-3-yl) (1,3-thiazolidin-3-yl)methanone]
EC50 (HIV-1NL4-3 Wild Type): 0.033 µM | EC50 (HIV-1NL4-3 K103N-Y181C): 0.181 µM | EC50 (HIV-1LAI Wild Type): 0.794 µM

O=C(c1cc(-c2cc(Br)cc(OC(F)(F)F)c2)n(-c2cccnc2)n1)N1CCS(=O)(=O)C1 [Example 32, {5-[3-Bromo-5-(trifluoromethoxy)phenyl]-1-(pyridin-3-yl)-1H-pyrazol-3-yl}(1,1-dioxido-1,3-thiazolidin-3-yl)methanone]
EC50 (HIV-1NL4-3 Wild Type): 0.007 µM | EC50 (HIV-1NL4-3 K103N-Y181C): 0.014 µM | EC50 (HIV-1LAI Wild Type): 0.083 µM

O=C(c1cc(-c2cc(Br)cc(OC(F)(F)F)c2)n(-c2ccc[n+]([O-])c2)n1)N1CCS(=O)(=O)C1 [Example 33, {5-[3-Bromo-5-(trifluoromethoxy)phenyl]-1-(1-oxidopyridin-3-yl)-1H-pyrazol-3-yl}(1,1-dioxido-1,3-thiazolidin-3-yl)methanone]
EC50 (HIV-1NL4-3 Wild Type): 0.069 µM | EC50 (HIV-1NL4-3 K103N-Y181C): 0.299 µM | EC50 (HIV-1LAI Wild Type): 1.02 µM
